Measured values from patent US20260285850A1, “SUBSTITUTED OXAZOLIDINONES AND IMIDAZOLINONES AS HERBICIDES” (FMC CORPORATION, priority 2023, published 2026).

How the values were obtained:
Type in all cases: in vivo
[1] = test system: kochia (Bassia scoparia); assay: Test A preemergence soil spray, visual injury rating 0-100; settings: 10 days
How it was run: (§1)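 Plants were grown in a loam soil-sand blend and treated with test chemical in a non-phytotoxic solvent mixture containing surfactant, either sprayed on soil preemergence or applied postemergence to 2-10 cm plants. After 10 days in a greenhouse, injury was scored visually against untreated controls, 0 meaning no effect and 100 complete control.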

[2] = test system: palmer (palmer amaranth, palmer pigweed, Amaranthus palmeri); assay: as above; settings: 10 days
How it was run: as §1

[3] = test system: oat, wild (wild oat, Avena fatua); assay: as above; settings: 10 days
How it was run: as §1

[4] = test system: ryegrass, Italian (italian ryegrass, Lolium multiflorum); assay: as above; settings: 10 days
How it was run: as §1

[5] = test system: ragweed (common ragweed, Ambrosia artemisiifolia); assay: as above; settings: 10 days
How it was run: as §1

[6] = test system: corn (Zea mays); assay: as above; settings: 10 days
How it was run: as §1

[7] = test system: green foxtail (Setaria viridis); assay: as above; settings: 10 days
How it was run: as §1

[8] = test system: soybean (Glycine max); assay: as above; settings: 10 days
How it was run: as §1

[9] = test system: barnyardgrass (Echinochloa crus-galli); assay: as above; settings: 10 days
How it was run: as §1

[10] = test system: wheat (Triticum aestivum); assay: as above; settings: 10 days
How it was run: as §1

[11] = test system: blackgrass (Alopecurus myosuroides); assay: as above; settings: 10 days
How it was run: as §1

[12] = test system: horseweed (Erigeron canadensis); assay: Test A postemergence application, visual injury rating 0-100
How it was run: as §1

[13] = test system: kochia (Bassia scoparia); assay: as above
How it was run: as §1

[14] = test system: palmer (palmer amaranth, palmer pigweed, Amaranthus palmeri); assay: as above
How it was run: as §1

[15] = test system: galium (catchweed bedstraw, Galium aparine); assay: as above
How it was run: as §1

[16] = test system: oat, wild (wild oat, Avena fatua); assay: as above
How it was run: as §1

[17] = test system: ryegrass, Italian (italian ryegrass, Lolium multiflorum); assay: as above
How it was run: as §1

[18] = test system: ragweed (common ragweed, Ambrosia artemisiifolia); assay: as above
How it was run: as §1

[19] = test system: corn (Zea mays); assay: as above
How it was run: as §1

[20] = test system: green foxtail (Setaria viridis); assay: as above
How it was run: as §1

[21] = test system: soybean (Glycine max); assay: as above
How it was run: as §1

[22] = test system: barnyardgrass (Echinochloa crus-galli); assay: as above
How it was run: as §1

[23] = test system: wheat (Triticum aestivum); assay: as above
How it was run: as §1

[24] = test system: blackgrass (Alopecurus myosuroides); assay: as above
How it was run: as §1

[25] = test system: barnyardgrass (Echinochloa crusgalli); assay: Test B flooded paddy test, visual plant response rating 0-100; settings: 250 g ai/ha, Flood, applied to paddy water, evaluated after 13 days
How it was run: (§2)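 Greenhouse, 13 d. Seedlings at 2-leaf stage, pots flooded to 3 cm, compound delivered into floodwater, water level held constant. Evaluated visually relative to controls.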

[26] = test system: rice (Oryza sativa); assay: as above; settings: 250 g ai/ha, Flood, applied to paddy water, evaluated after 13 days
How it was run: as §2

[27] = test system: sedge, umbrella (small-flower umbrella sedge, Cyperus difformis); assay: as above; settings: 250 g ai/ha, Flood, applied to paddy water, evaluated after 13 days
How it was run: as §2

[28] = test system: ducksalad (Heteranthera limosa); assay: as above; settings: 250 g ai/ha, Flood, applied to paddy water, evaluated after 13 days
How it was run: as §2

[29] = 62 g ai/ha, 0 = no effect, 100 = complete control
[30] = 62 g ai/ha, postemergence, 10 days, 0 = no effect, 100 = complete control
[31] = Postemergence, 16 g ai/ha, greenhouse 10 days, 0 no effect, 100 complete control

## C=CC1(C(=O)NC2C=CC(C(=O)OC)C2)CN(c2cc(F)cc(F)c2)C(=O)O1 (single isomer, unassigned) [Compound 167]
[1]; 16 g ai/ha, 0 to 100 scale
  Kochia plant response rating: 70
[1]; [29]
  Kochia plant response rating (0-100): 100
[2]; 16 g ai/ha, 0 to 100 scale
  Pigweed, Palmer plant response rating: 100
[2]; [29]
  Pigweed, Palmer plant response rating (0-100): 100
[3]; 16 g ai/ha, 0 to 100 scale
  Oat, Wild plant response rating: 50
[3]; [29]
  Oat, Wild plant response rating (0-100): 90
[4]; 16 g ai/ha, 0 to 100 scale
  Ryegrass, Italian plant response rating: 80
[4]; [29]
  Ryegrass, Italian plant response rating (0-100): 90
[5]; 16 g ai/ha, 0 to 100 scale
  Ragweed plant response rating: 60
[5]; [29]
  Ragweed plant response rating (0-100): 90
[6]; 16 g ai/ha, 0 to 100 scale
  Corn plant response rating: 40
[6]; [29]
  Corn plant response rating (0-100): 90
[7]; 16 g ai/ha, 0 to 100 scale
  Foxtail, Green plant response rating: 90
[7]; [29]
  Foxtail, Green plant response rating (0-100): 100
[8]; 16 g ai/ha, 0 to 100 scale
  Soybean plant response rating: 70
[8]; [29]
  Soybean plant response rating (0-100): 80
[9]; 16 g ai/ha, 0 to 100 scale
  Barnyardgrass plant response rating: 60
[9]; [29]
  Barnyardgrass plant response rating (0-100): 100
[10]; 16 g ai/ha, 0 to 100 scale
  Wheat plant response rating: 70
[10]; [29]
  Wheat plant response rating (0-100): 90
[11]; 16 g ai/ha, 0 to 100 scale
  Blackgrass plant response rating: 30
[11]; [29]
  Blackgrass plant response rating (0-100): 70
[12]; [30]
  Horseweed plant response rating (0-100): 80
[12]; [31]
  Horseweed plant response rating (0 to 100 scale): 80
[13]; [30]
  Kochia plant response rating (0-100): 80
[13]; [31]
  Kochia plant response rating (0 to 100 scale): 80
[14]; [30]
  Pigweed, Palmer plant response rating (0-100): 90
[14]; [31]
  Pigweed, Palmer plant response rating (0 to 100 scale): 90
[15]; [30]
  Galium plant response rating (0-100): 80
[15]; [31]
  Galium plant response rating (0 to 100 scale): 80
[16]; [30]
  Oat, Wild plant response rating (0-100): 90
[16]; [31]
  Oat, Wild plant response rating (0 to 100 scale): 90
[17]; [30]
  Ryegrass, Italian plant response rating (0-100): 90
[17]; [31]
  Ryegrass, Italian plant response rating (0 to 100 scale): 80
[18]; [30]
  Ragweed plant response rating (0-100): 80
[18]; [31]
  Ragweed plant response rating (0 to 100 scale): 70
[19]; [30]
  Corn plant response rating (0-100): 100
[19]; [31]
  Corn plant response rating (0 to 100 scale): 100
[20]; [30]
  Foxtail, Green plant response rating (0-100): 90
[20]; [31]
  Foxtail, Green plant response rating (0 to 100 scale): 90
[21]; [30]
  Soybean plant response rating (0-100): 80
[21]; [31]
  Soybean plant response rating (0 to 100 scale): 80
[22]; [30]
  Barnyardgrass plant response rating (0-100): 90
[22]; [31]
  Barnyardgrass plant response rating (0 to 100 scale): 90
[23]; [30]
  Wheat plant response rating (0-100): 90
[23]; [31]
  Wheat plant response rating (0 to 100 scale): 90
[24]; [30]
  Blackgrass plant response rating (0-100): 90
[24]; [31]
  Blackgrass plant response rating (0 to 100 scale): 80
[25]
  Plant response rating, Barnyardgrass (0 to 100 scale, 0 is no effect and 100 is complete control): 90
[26]
  Plant response rating, Rice (0 to 100 scale, 0 is no effect and 100 is complete control): 98
[27]
  Plant response rating, Sedge, Umbrella (0 to 100 scale, 0 is no effect and 100 is complete control): 98
[28]
  Plant response rating, Ducksalad (0 to 100 scale, 0 is no effect and 100 is complete control): 98
